These are literature values, as cited in patent US20230109626A1 (priority 2020, published 2023).

Structures are written as SMILES.

For this series the following is noted: for solubility in water: at 20° C.

`N=C(NCCCCCCNC(=N)NC(=N)Nc1ccc(Cl)cc1)NC(=N)Nc1ccc(Cl)cc1.O=C(O)[C@H](O)[C@@H](O)[C@H](O)[C@H](O)CO.O=C(O)[C@H](O)[C@@H](O)[C@H](O)[C@H](O)CO` [chlorhexidine gluconate]: the solubility in water is no less than 2100 mg/100 mL.

Consider `[H]/N=C(\N/C(=N/[H])NCCCCCCNC(=N)NC(=N)Nc1ccc(Cl)cc1)Nc1ccc(Cl)cc1` [Chlorhexidine], for which the solubility in water was 80 mg/100 mL. The solubility entry (temperature not given) is given as “about 80 mg/100 mL”.
